Assay results as given in patent US20210393565A1, “PREPARATION FOR USE TO INCREASE THE FORMATION OF ONE OR MORE SPECIALIZED PRO-RESOLVING LIPID MEDIATORS (SPM)” (Evonik Operations GmbH, priority 2018, published 2021).

Assays:
Assay type in all cases: cell-based
[1] = test system: Bacillus megaterium DSM 32963 cells; assay: Lipidometabolomics (UPLC-MS/MS) of culture supernatants with AvailOm, dissolved or as dispersion; settings: for Extracellular concentration of PUFA oxygenation product: − bile acids, net after subtraction of cell-free control
Text: (§1) Bacterial supernatant samples were subjected to lipid extraction using RP-phase solid phase extraction and subsequently analyzed by ultra performance liquid chromatography ESI tandem mass spectrometry (UPLC-MS/MS) according to a published procedure. Under these conditions approximately 40 different LM, including 5-hydroxy-eicosapentaenoic acid 5-HEPE, 8-HEPE, 11-HEPE, 12-HEPE, 15-HEPE, 18-HEPE, 5-hydroxy-eicosatetraenoic acid (5-HETE), 8-HETE, 11-HETE, 12-HETE, 15-HETE, 4-hydroxy-DHA (4-HDHA), 7-HDHA, 13-HDHA, 14-HDHA, 17-HDHA, lipoxin A4 (LXA4), LXB4, resolvin E1 (RvE1), RvE3, resolvin D1-5 (RvD1-5), AT-RvD1, RvD2, protectin D1 (PD1), AT-PD1, maresin 1(MaR1), MaR2, plus 4 fatty acid substrates can be detected with a lower limit of detection of 1 pg.
To investigate if Bacillus megaterium is capable of producing other PUFA oxygenation products in addition to 18-HEPE, a lipidometabolomics screening of supernatants from Bacillus megaterium strain 32963 cultured as in example 4 with AvailOm® was performed, either dissolved or in a dispersion formulation, with or without bile acids. Cell-free preparations of AvailOm® formulations were treated and analyzed in parallel and served as controls for non-enzymatic, spontaneous formation of oxygenation products. Values given in table 6 display net concentrations of products formed, i.e. after subtraction of control values. […] Concentrations of several SPM exceed by far the concentrations of SPM found in human plasma samples, which are typically in a range of ˜20-100 pg/ml. For comparison, human breast milk contains ˜6.000 pg/ml RvE1 and ˜10.000 pg/ml RvD1 [42].

[2] = test system: Bacillus megaterium DSM 33296 cells; assay: Lipidometabolomics of culture supernatants with AvailOm dispersion formulation; settings: Bacillus megaterium DSM 33296, AvailOm dispersion formulation; net concentration
Text: as §1
(§2) 47 additional Bacillus megaterium strains sourced from various habitats were screened for their SPM production capacity to determine if this is a general phenomenon of the species Bacillus megaterium and to detect strain-specific differences in types and quantities of SPM being produced. Cells were cultured as detailed in example 4, with dispersion formulation of AvailOm® serving as omega-3 fatty acid source. Cell-free preparations of AvailOm® were treated and analyzed in parallel and served as controls for non-enzymatic, spontaneous formation of oxygenation products. It was observed that all tested strains produced measurable (>1 pg/ml) amounts of various SPM and precursors thereof, that these amounts were hugely different between the strains (up to 2.000 fold), and that concentrations of RvE3 were particularly high (up to 1.3 μg/ml) in most of the strains.
(§3) Values given in table 7 display net concentrations of PUFA oxygenation products formed by two of the top performing strains, Bacillus megaterium DSM 33296 and Bacillus megaterium DSM 33299.

[3] = test system: Bacillus megaterium DSM 33299 cells; assay: as above; settings: Bacillus megaterium DSM 33299, AvailOm dispersion formulation; net concentration
Text: as §1, §2, §3

Molecule | Extracellular concentration of PUFA oxygenation product ([1]; AvailOm) | Extracellular concentration of PUFA oxygenation product [2] | Extracellular concentration of PUFA oxygenation product [3] | Extracellular concentration of PUFA oxygenation product ([1]; AvailOm dispersion) | abundance with dispersion formulation and/or bile acids compared to AvailOm without both (in words) [1]
CCCCC/C=C\C[C@@H](O)/C=C/C=C/C=C\[C@@H](O)CCCC(=O)O [LTB4, leukotriene B4] | 171 pg/mL | 1769 pg/mL | 2206 pg/mL | – | –
CC[C@@H](O)/C=C/C=C\C[C@@H](O)/C=C/C=C/C=C\[C@@H](O)CCCC(=O)O [RvE1, resolvin E1] | 88 pg/mL | 5840 pg/mL | 28379 pg/mL | 57826 pg/mL | –
12-hydroxy-eicosapentaenoic acid [12-HEPE] | 4413 pg/mL | 124701 pg/mL | 79699 pg/mL | – | lower
CCC(O)/C=C/C=C\C/C=C\C/C=C\C/C=C\CCCC(=O)O (stereo not shown) [18-HEPE, 18-hydroxy-eicosapentaenoic acid] | 24463 pg/mL | 391397 pg/mL | 217725 pg/mL | – | lower
CC/C=C\C[C@H](O)/C=C/C=C\C=C\C=C\[C@@H](O)[C@@H](O)CCCC(=O)O [LXA5, lipoxin A5] | 7767 pg/mL | 4693 pg/mL | 128825 pg/mL | 41263 pg/mL | –
CC/C=C\C[C@H](O)/C=C/C=C\C/C=C\C=C\[C@@H](O)C/C=C\CCC(=O)O [RvD5] | 68 pg/mL | 15079 pg/mL | 34168 pg/mL | 9016 pg/mL | –
CC/C=C\C[C@H](O)[C@H](O)/C=C/C=C/C=C\C=C\[C@@H](O)C/C=C\CCC(=O)O [RvD2] | 87 pg/mL | 265 pg/mL | 428 pg/mL | 99 pg/mL | –
CC/C=C\C/C=C\C[C@H](O)[C@H](O)/C=C/C=C/C=C\C/C=C\CCC(=O)O [MaR2, maresin 2] | 120 pg/mL | 1522 pg/mL | 1233 pg/mL | 197 pg/mL | –
CCC=CCC=CCC=CCC=CC=CC(O)CCCC(=O)O (stereo not shown) [5-HEPE, 5-hydroxy-eicosapentaenoic acid] | 2253 pg/mL | 395188 pg/mL | 989691 pg/mL | – | lower
CC/C=C\C[C@H](O)\C=C/C=C/C=C/[C@H](O)C/C=C\C/C=C\CCC(=O)O [PD1 1, protectin D1] | 113 pg/mL | 99029 pg/mL | 75342 pg/mL | 3841 pg/mL | –
CC/C=C\C[C@H](O)[C@@H](O)/C=C/C=C/C=C\C=C\[C@@H](O)CCCC(=O)O [LXB5, lipoxin B5] | 2376 pg/mL | – | – | 669042 pg/mL | –
CC/C=C\C[C@@H](O)\C=C/C=C/C=C/[C@H](O)C/C=C\C/C=C\CCC(=O)O [AT-PD1 1, Aspirin-triggered PD1] | 96 pg/mL | 4558 pg/mL | 10317 pg/mL | 247 pg/mL | –
CC/C=C\C/C=C\C[C@H](O)\C=C/C=C/C=C/[C@H](O)C/C=C\CCC(=O)O [MaR1, maresin 1] | 114 pg/mL | 1161 pg/mL | 1576 pg/mL | 145 pg/mL | –
5-hydroxy-eicosatetraenoic acid [5-HETE] | 13 pg/mL | 15434 pg/mL | 9356 pg/mL | – | lower
CCCCC/C=C\C[C@@H](O)/C=C/C=C/C=C/[C@@H](O)CCCC(=O)O [t-LTB4] | 360 pg/mL | 1780 pg/mL | 4181 pg/mL | 667 pg/mL | –
CC/C=C\C[C@H](O)/C=C\C=C\C/C=C/C=C/C=C/C(O)[C@@H](O)CCC(=O)O (stereo partly shown) [RvD4] | 3681 pg/mL | 1986 pg/mL | 2523 pg/mL | – | –
CC/C=C\C[C@H](O)/C=C/C=C\C=C\[C@@H](O)C/C=C\C/C=C\CCC(=O)O [PDX 1] | 109 pg/mL | 78345 pg/mL | 138918 pg/mL | 19542 pg/mL | –
CCCCC[C@H](O)[C@H](O)/C=C/C=C/C=C\C=C\[C@@H](O)CCCC(=O)O [LXB4, lipoxin B4] | – | – | – | 76301 pg/mL | –
CC/C=C\CC(O)/C=C/C=C\C/C=C\C/C=C\CCCC(=O)O (stereo not shown) [15-HEPE, 15-hydroxy-eicosapentaenoic acid] | 7536 pg/mL | 256797 pg/mL | 151168 pg/mL | – | lower
CC/C=C\C[C@H](O)/C=C/C=C\C[C@@H](O)/C=C/C=C/C=C\[C@@H](O)CCC(=O)O [RvD3] | 178 pg/mL | 381 pg/mL | 941 pg/mL | 8409 pg/mL | –
CC/C=C\C/C=C\C/C=C\C/C=C\C=C\C(O)C/C=C\CCC(=O)O (stereo not shown) [7-HDHA, 7-hydroxy-DHA] | – | 202129 pg/mL | 243080 pg/mL | – | –
CCCCC/C=C\C/C=C\C=C\C(O)C/C=C\CCCC(=O)O (stereo not shown) [8-HETE, 8-hydroxy-eicosatetraenoic acid] | – | 24207 pg/mL | 15941 pg/mL | – | lower
CCCCC[C@H](O)/C=C/C=C\C=C\C=C\[C@@H](O)[C@@H](O)CCCC(=O)O [LXA4, lipoxin A4] | – | 1157 pg/mL | 1430 pg/mL | – | –
CC/C=C\C[C@@H](O)/C=C/C=C\C=C\C=C\[C@@H](O)[C@@H](O)C/C=C\CCC(=O)O [AT-RvD1, Aspirin-triggered RvD1] | 519 pg/mL | 9612 pg/mL | 48243 pg/mL | 4932 pg/mL | –
9-hydroxyoctadecadienoic acid [9-HODE] | 43 pg/mL | – | – | – | lower
RvD1 | 598 pg/mL | 3626 pg/mL | 4389 pg/mL | 1863 pg/mL | –
11-hydroxy-eicosapentaenoic acid [11-HEPE] | 4659 pg/mL | 124860 pg/mL | 63306 pg/mL | – | lower
